# Source: article PMC10743429, “Anti-Inflammatory Effects of Alphitolic Acid Isolated from Agrimonia coreana Nakai Extracts Are Mediated via the Inhibition of ICRAC Activity in T Cells” (International Journal of Molecular Sciences, 2023)
# Biological target: T1, ORAI1 (Homo sapiens, UniProt Q96D31)
# T1 construct: ORAI1 transiently co-transfected with STIM1 in HEK293T cells; with STIM1
# Test: patch-clamp of ICRAC in HEK293T cells co-expressing ORAI1 and STIM1
# Format: cell-based
# T1 sequence (Q96D31 whole entry): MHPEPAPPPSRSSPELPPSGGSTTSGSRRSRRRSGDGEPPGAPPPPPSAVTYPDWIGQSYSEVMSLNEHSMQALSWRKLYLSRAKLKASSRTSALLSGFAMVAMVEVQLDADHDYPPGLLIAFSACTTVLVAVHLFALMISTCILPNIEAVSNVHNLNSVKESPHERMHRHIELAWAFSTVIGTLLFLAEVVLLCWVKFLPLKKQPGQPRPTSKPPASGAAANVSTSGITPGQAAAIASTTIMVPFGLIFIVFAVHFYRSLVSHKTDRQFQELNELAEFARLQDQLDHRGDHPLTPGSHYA
# T1 sequence (Q13586 23-685 partner): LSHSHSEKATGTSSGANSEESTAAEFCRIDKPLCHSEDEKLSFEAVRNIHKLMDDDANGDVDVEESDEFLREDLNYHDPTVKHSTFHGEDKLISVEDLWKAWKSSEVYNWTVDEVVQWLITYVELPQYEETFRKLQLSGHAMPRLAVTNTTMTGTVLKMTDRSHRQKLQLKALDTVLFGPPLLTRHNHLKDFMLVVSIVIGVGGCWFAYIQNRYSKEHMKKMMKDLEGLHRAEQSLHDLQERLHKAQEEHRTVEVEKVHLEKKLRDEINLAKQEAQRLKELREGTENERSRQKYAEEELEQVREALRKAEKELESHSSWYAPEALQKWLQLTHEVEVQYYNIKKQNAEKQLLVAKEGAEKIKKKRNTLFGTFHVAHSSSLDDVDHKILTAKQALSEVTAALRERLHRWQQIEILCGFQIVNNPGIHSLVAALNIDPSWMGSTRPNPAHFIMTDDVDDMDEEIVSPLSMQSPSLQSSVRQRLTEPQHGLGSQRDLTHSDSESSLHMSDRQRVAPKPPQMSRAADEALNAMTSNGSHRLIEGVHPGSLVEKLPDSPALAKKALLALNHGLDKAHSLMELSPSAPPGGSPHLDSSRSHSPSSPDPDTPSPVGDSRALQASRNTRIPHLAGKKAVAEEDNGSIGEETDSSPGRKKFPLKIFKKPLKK
compound,measurement,value
"C=C(C)[C@@H]1CC[C@]2(C(=O)O)CC[C@]3(C)[C@H](CC[C@@H]4[C@@]5(C)C[C@@H](O)[C@H](O)C(C)(C)[C@@H]5CC[C@]43C)[C@@H]12 [compound 1, alphitolic acid]",IC50,17.5 ± 2.46 µM
